Laboratory results reported in patent US9113629B2, “4-amino-6-(4-substituted-phenyl)-picolinates and 6-amino-2-(4-substituted-phenyl)-pyrimidine-4-carboxylates and their use as herbicides” (DOW AGROSCIENCES LLC, priority 2013, dated 2015).
Read-outs that look alike come from different tables or passages of the source.

Columns and labels:
Assay in all cases: Post-emergent Test III, herbicidal activity in wheat and barley
Format in all cases: in vivo
[1] = test system: CIRAR: Canada thistle (Cirsium arvense); conditions: Table 8, 21 d; for pest or weed control at 35 g/ha / pest or weed control at 70 g/ha: Cirsium arvense, post-emergence, 504 h, post-emergent, read-out: Visual Growth Reduction (%) 21 Days After Application CIRAR; for pest or weed control at 35 g/ha: 35 g ai/ha; for pest or weed control at 70 g/ha: 70 g ai/ha; for GR50 CIRAR: dose for 50 percent growth reduction; for GR50 CIRAR / GR80 CIRAR: probit analysis; for GR80 CIRAR: dose for 80 percent growth reduction
Procedure, shortened: (§1)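 GR20, GR50, GR80 and GR90 come from probit analysis of visual injury scores (0 = none, 100 = complete kill) taken 21 d after treatment. Foliar application was by track sprayer delivering 187 L/ha at five rates, from high down to 1/16×, onto greenhouse plants at the 2–3 leaf stage, with solvent-blank controls.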

[2] = test system: SASKR: Russian thistle (Salsola iberica); conditions: for pest or weed control at 35 g/ha / pest or weed control at 70 g/ha: Salsola tragus, post-emergence, 504 h; for pest or weed control at 35 g/ha: 35 g ai/ha; for pest or weed control at 70 g/ha: 70 g ai/ha; for GR50 SASKR: dose for 50 percent growth reduction; for GR50 SASKR / GR80 SASKR: probit analysis; for GR80 SASKR: dose for 80 percent growth reduction
Procedure, shortened: as §1

[3] = test system: GALAP: cleavers (Galium aparine); conditions: Table 8, 21 d; for pest or weed control at 35 g/ha / pest or weed control at 70 g/ha: Galium aparine, post-emergence, 504 h, post-emergent, read-out: Visual Growth Reduction (%) 21 Days After Application GALAP; for pest or weed control at 35 g/ha: 35 g ai/ha; for pest or weed control at 70 g/ha: 70 g ai/ha; for GR50 GALAP: dose for 50 percent growth reduction; for GR50 GALAP / GR80 GALAP: probit analysis; for GR80 GALAP: dose for 80 percent growth reduction
Procedure, shortened: as §1

[4] = test system: VIOSS: wild pansy (Viola tricolor), field violet (Viola arvensis); conditions: for GR50 VIOSS: dose for 50 percent growth reduction; for GR50 VIOSS / GR80 VIOSS: probit analysis; for GR80 VIOSS: dose for 80 percent growth reduction; for pest or weed control at 35 g/ha / pest or weed control at 70 g/ha: Viola tricolor, post-emergence, 504 h; for pest or weed control at 35 g/ha: 35 g ai/ha; for pest or weed control at 70 g/ha: 70 g ai/ha
Procedure, shortened: as §1

[5] = test system: STEME: common chickweed (Stellaria media); conditions: for pest or weed control at 35 g/ha / pest or weed control at 70 g/ha / pest or weed control at 140 g/ha: Stellaria media, post-emergence, 504 h, read-out: Visual Growth Reduction (%) 21 Days After Application STEME; for pest or weed control at 35 g/ha: 35 g ai/ha; for pest or weed control at 70 g/ha: 70 g ai/ha; for pest or weed control at 140 g/ha: 140 g ai/ha; for GR50 STEME / GR80 STEME: probit analysis, 21 days after application; for GR50 STEME: dose for growth reduction of 50 percent; for GR80 STEME: dose for growth reduction of 80 percent
Procedure, shortened: as §1

[6] = Table 8, post-emergent, 21 d, read-out: Visual Growth Reduction (%) 21 Days After Application SASKR
[7] = Table 8, post-emergent, 21 d, read-out: Visual Growth Reduction (%) 21 Days After Application VIOSS
[8] = 21 days after application, read-out: Visual Gorowth Reduction (%) 21 days After Application SASKR
[9] = 21 days after application, read-out: Visual Gorowth Reduction (%) 21 days After Application VIOSS

For `COC(=O)c1nc(-c2ccc(I)c(F)c2)c(C)c(N)c1Cl` [Compound 79, Methyl 4-amino-3-chloro-6-(3-fluoro-4-iodophenyl)-5-methylpicolinate], the pest or weed control at 35 g/ha [1] was 95 to 100%, the pest or weed control at 70 g/ha [1] was 95 to 100% and the “GR50 CIRAR” value [1] was 1 g ai/ha. For the same compound, the “GR80 CIRAR” value [1] was 5 g ai/ha, the pest or weed control at 35 g/ha [2, 6] was 75 to 84% and the pest or weed control at 70 g/ha [2, 6] was 85 to 94%. For the same compound, the “GR50 SASKR” value ([2]; Table 8, 21 d) was 11 g ai/ha, the “GR80 SASKR” value ([2]; Table 8, 21 d) was 43 g ai/ha and the pest or weed control at 35 g/ha [3] was 95 to 100%. For the same compound, the pest or weed control at 70 g/ha [3] was 95 to 100%, the “GR50 GALAP” value [3] was 4 g ai/ha and the “GR80 GALAP” value [3] was 6 g ai/ha. For the same compound, the “GR50 VIOSS” value ([4]; Table 8, 21 d) was over 140 g ai/ha, the “GR80 VIOSS” value ([4]; Table 8, 21 d) was over 140 g ai/ha and the pest or weed control at 35 g/ha [4, 7] was 0 to 29%. For the same compound, the pest or weed control at 70 g/ha [4, 7] was 0 to 29%.
In the case of `COC(=O)c1nc(-c2ccc(OC(F)F)cc2)c(F)c(N)c1Cl` [Compound 85], the pest or weed control at 35 g/ha [5] is reported as 0 to 29%, the pest or weed control at 70 g/ha [5] is reported as 0 to 29% and the pest or weed control at 140 g/ha [5] is reported as 0 to 29%. For the same compound, the “GR50 STEME” value [5] was 57 g ai/ha and the “GR80 STEME” value [5] was 123 g ai/ha.
With `C=Cc1c(C(=O)O)nc(-c2ccc(C(F)(F)F)c(F)c2)c(F)c1N` [Compound 86] the pest or weed control at 35 g/ha [2, 8] was 60 to 74%, the pest or weed control at 70 g/ha [2, 8] was 75 to 84% and the “GR50 SASKR” value ([2]; 21 days after application) was 18 g ai/ha. The “GR80 SASKR” value ([2]; 21 days after application) was 66 g ai/ha, the pest or weed control at 35 g/ha [4, 9] was 60 to 74% and the pest or weed control at 70 g/ha [4, 9] was 60 to 74%. For the same compound, the “GR50 VIOSS” value ([4]; 21 days after application) was 21 g ai/ha and the “GR80 VIOSS” value ([4]; 21 days after application) was 77 g ai/ha.
With `COC(=O)c1nc(-c2ccc(Br)c(F)c2F)cc(N)c1Cl` [Compound 114, methyl 4-amino-6-(4-bromo-2,3-difluorophenyl)-3-chloropicolinate] the pest or weed control at 35 g/ha [5] was 0 to 29%, the pest or weed control at 70 g/ha [5] was 0 to 29% and the pest or weed control at 140 g/ha [5] was 0 to 29%. For the same compound, the “GR50 STEME” value [5] was over 140 g ai/ha and the “GR80 STEME” value [5] was over 140 g ai/ha.
Work on `COC(=O)c1nc(-c2ccc(I)cc2)c(F)c(N)c1Cl` [Compound 118, Methyl 4-amino-6-(4-iodophenyl)-3-chloro-5-fluoropicolinate] yielded a pest or weed control at 35 g/ha [5] of 30 to 44%, a pest or weed control at 70 g/ha [5] of 30 to 44% and a pest or weed control at 140 g/ha [5] of 30 to 44%. For the same compound, the “GR50 STEME” value [5] was 1 g ai/ha and the “GR80 STEME” value [5] was 1 g ai/ha.
For `Nc1cc(-c2ccc(I)cc2F)nc(C(=O)O)c1Cl` [Compound 124], the pest or weed control at 35 g/ha [1] was 60 to 74%, the pest or weed control at 70 g/ha [1] was 75 to 84% and the “GR50 CIRAR” value [1] was 24 g ai/ha. For the same compound, the “GR80 CIRAR” value [1] was 91 g ai/ha, the pest or weed control at 35 g/ha [2, 6] was 60 to 74% and the pest or weed control at 70 g/ha [2, 6] was 85 to 94%. The “GR50 SASKR” value ([2]; Table 8, 21 d) was 12 g ai/ha, the “GR80 SASKR” value ([2]; Table 8, 21 d) was 53 g ai/ha and the pest or weed control at 35 g/ha [3] was 85 to 94%. For the same compound, the pest or weed control at 70 g/ha [3] was 95 to 100%, the “GR50 GALAP” value [3] was 6 g ai/ha and the “GR80 GALAP” value [3] was 21 g ai/ha. For the same compound, the “GR50 VIOSS” value ([4]; Table 8, 21 d) was 24 g ai/ha, the “GR80 VIOSS” value ([4]; Table 8, 21 d) was 49 g ai/ha and the pest or weed control at 35 g/ha [4, 7] was 60 to 74%. It also gave a pest or weed control at 70 g/ha [4, 7] of 95 to 100%.
For `COC(=O)c1nc(-c2ccc(Br)cc2)c(F)c(N)c1Cl` [Compound 138, Methyl 4-amino-6-(4-bromophenyl)-3-chloro-5-fluoropicolinate], the pest or weed control at 35 g/ha [5] was 30 to 44%, the pest or weed control at 70 g/ha [5] was 30 to 44% and the pest or weed control at 140 g/ha [5] was 45 to 59%. The “GR50 STEME” value [5] was 125 g ai/ha and the “GR80 STEME” value [5] was over 140 g ai/ha.
Work on `COC(=O)c1nc(-c2ccc(C#N)cc2)c(F)c(N)c1Cl` [Compound 142] yielded a pest or weed control at 35 g/ha [5] of 0 to 29%, a pest or weed control at 70 g/ha [5] of 0 to 29% and a pest or weed control at 140 g/ha [5] of 0 to 29%. The “GR50 STEME” value [5] was over 140 g ai/ha and the “GR80 STEME” value [5] was over 140 g ai/ha.
With `Nc1c(F)c(-c2ccc(OC(F)F)cc2)nc(C(=O)O)c1Cl` [Compound 143] the pest or weed control at 35 g/ha [5] was 0 to 29%, the pest or weed control at 70 g/ha [5] was 0 to 29% and the pest or weed control at 140 g/ha [5] was 0 to 29%. The “GR50 STEME” value [5] was over 140 g ai/ha and the “GR80 STEME” value [5] was over 140 g ai/ha.
